{"source": "patent US20230111568A1", "about": "“SOLID DISPERSIONS OF RIFAXIMIN FOR THE TREATMENT OF OVERT HEPATIC ENCEPHALOPATHY” (Bausch Health Ireland Limited, priority 2020, published 2023)", "origin": "cited, not measured here", "test_system": "complications of cirrhosis"}
{"smiles": "CO[C@H]1/C=C/O[C@@]2(C)Oc3c(C)c(O)c4c(O)c(c5c(nc6cc(C)ccn65)c4c3C2=O)NC(=O)/C(C)=C\\C=C\\[C@H](C)[C@H](O)[C@@H](C)[C@@H](O)[C@@H](C)[C@H](OC(C)=O)[C@@H]1C", "note": "[rifaximin]", "values": [{"measurement": "HE recurrences, hospitalizations, adverse events, survival", "setting": "literature (Conf. Proc. IEEE Eng. Med. Biol. Soc. 2013)", "value": "protect from HE recurrences with decreased HE-related and all-cause hospitalizations without an increased rate of adverse events (AEs) or decreased survival"}, {"measurement": "overall rates of infection, antibiotic use and other complications of cirrhosis", "setting": "literature (Conf. Proc. IEEE Eng. Med. Biol. Soc.)", "value": "reduces or maintains the overall rates of infection, antibiotic use, and other complications of cirrhosis such as ascites"}, {"measurement": "survival and risk of variceal bleeding, HE, SBP or HRS", "setting": "literature (Journal of Gastroenterology and Hepatology 28(3))", "value": "independently associated with higher survival and lower risk of developing variceal bleeding, HE, SBP, or HRS"}]}
